Measured values from patent US20240245682A1, “ALPHA-V-BETA-8 INTEGRIN INHIBITORS AND USES THEREOF” (Pliant Therapeutics, Inc., priority 2022, published 2024).

Columns and labels:
Assay in all cases: AlphaScreen proximity-based integrin binding assay with TGF-b1 LAP
Details in all cases: values given as ranges
human integrin αVβ1 = human integrin αVβ1 (Homo sapiens, UniProt P05556+P06756)
Protocol: (§1) The biochemical potency of the disclosed compounds was determined using the AlphaScreen® (Perkin Elmer, Waltham, MA) proximity-based assay as described previously (Ullman E F et al., Luminescent oxygen channeling immunoassay: Measurement of particle binding kinetics by chemiluminescence. Proc. Natl. Acad. Sci. USA, Vol. 91, pp. 5426-5430, June 1994, herein incorporated by reference in its entirety). To gauge the potency of inhibitors of binding to each of human integrins αVβ1, αVβ6, and αVβ8, inhibitor compounds were independently incubated with one of αVβ1, αVβ6, or αVβ8, together with TGF-b1 LAP and biotinylated anti-LAP antibody plus acceptor and donor beads, following the manufacture's recommendations. The donor beads were coated with streptavidin. […] All incubations occurred at room temperatures in 50 mM Tris-HCl, pH 7.5, 0.1% BSA supplemented with 1 mM each CaCl2 and MgCl2.
(§2) The order of reagent addition was as follows:
(§3) 1. αVβ1, αVβ6, or αVβ8 integrin, test inhibitor compound, LAP, biotinylated anti-LAP antibody and acceptor beads were all added together.
(§4) 2. After 2 hours, donor beads were added. After another 30 minute incubation, samples were then read.
(§5) Integrin binding was evaluated by exciting donor beads at 680 nm, and measuring the fluorescent signal produced, between 520-620 nm, using a Biotek Instruments (Winooski, VT, USA) SynergyNeo2 multimode plate reader. Compound potency was assessed by determining inhibitor concentrations required to reduce fluorescent light output by 50%. Data analysis for IC50 determinations was carried out by nonlinear four parameter logistic regression analysis using Dotmatics ELN Software (Core Informatics Inc., Branford, Ct). […] Comp #in the Table and Examples below refers to the compound of the corresponding Example number as described in the Synthetic Examples.

human integrin αVβ8 = human integrin αVβ8 (Homo sapiens, UniProt P06756+P26012)
Sequence of human integrin αVβ8 (P06756 31-992 limits assumed): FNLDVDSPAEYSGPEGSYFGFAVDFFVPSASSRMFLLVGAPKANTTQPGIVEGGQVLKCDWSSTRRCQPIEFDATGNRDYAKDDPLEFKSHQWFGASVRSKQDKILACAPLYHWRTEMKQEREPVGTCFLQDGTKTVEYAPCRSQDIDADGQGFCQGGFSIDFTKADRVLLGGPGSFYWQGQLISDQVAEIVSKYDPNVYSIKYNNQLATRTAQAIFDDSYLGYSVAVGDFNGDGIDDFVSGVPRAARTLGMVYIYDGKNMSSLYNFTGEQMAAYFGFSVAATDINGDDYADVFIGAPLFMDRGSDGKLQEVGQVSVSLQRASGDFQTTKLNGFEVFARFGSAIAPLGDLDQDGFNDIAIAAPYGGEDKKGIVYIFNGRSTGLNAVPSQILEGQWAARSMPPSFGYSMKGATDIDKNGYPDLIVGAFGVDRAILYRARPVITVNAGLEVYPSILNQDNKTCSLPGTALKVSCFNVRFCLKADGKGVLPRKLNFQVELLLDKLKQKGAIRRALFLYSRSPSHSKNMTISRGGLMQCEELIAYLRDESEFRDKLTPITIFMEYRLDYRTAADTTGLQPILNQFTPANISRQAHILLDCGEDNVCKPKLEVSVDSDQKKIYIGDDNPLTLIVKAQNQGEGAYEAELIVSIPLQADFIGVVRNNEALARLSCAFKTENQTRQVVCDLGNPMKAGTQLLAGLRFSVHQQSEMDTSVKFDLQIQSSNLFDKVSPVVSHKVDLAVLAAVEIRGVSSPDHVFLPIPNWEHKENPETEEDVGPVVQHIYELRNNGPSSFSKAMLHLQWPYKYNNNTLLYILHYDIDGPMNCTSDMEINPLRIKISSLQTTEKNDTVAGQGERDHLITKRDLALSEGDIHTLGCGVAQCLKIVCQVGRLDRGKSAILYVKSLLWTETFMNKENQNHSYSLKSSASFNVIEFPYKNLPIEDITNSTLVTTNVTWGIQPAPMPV
Sequence of human integrin αVβ8 (P26012 43-684 limits assumed): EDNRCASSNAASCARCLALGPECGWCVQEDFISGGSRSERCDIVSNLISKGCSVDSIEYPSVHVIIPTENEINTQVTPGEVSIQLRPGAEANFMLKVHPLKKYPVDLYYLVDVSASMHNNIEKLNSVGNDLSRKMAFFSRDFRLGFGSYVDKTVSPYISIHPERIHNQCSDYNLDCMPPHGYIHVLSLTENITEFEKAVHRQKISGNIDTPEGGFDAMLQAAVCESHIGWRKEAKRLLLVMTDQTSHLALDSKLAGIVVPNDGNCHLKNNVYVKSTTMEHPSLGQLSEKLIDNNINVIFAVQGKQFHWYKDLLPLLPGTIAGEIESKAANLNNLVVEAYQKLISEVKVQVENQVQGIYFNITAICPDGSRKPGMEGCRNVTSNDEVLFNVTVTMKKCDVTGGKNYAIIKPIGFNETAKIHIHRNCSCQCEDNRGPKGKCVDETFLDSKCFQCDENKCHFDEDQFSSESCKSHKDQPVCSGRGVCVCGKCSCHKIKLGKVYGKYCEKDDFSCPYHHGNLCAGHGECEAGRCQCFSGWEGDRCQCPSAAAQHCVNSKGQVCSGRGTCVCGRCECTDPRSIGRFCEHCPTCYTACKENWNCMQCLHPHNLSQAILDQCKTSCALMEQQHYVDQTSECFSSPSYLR
Protocol: as §1, §2, §3, §4, §5

human integrin αVβ6 = human integrin αVβ6 (Homo sapiens, UniProt P06756+P18564)
Sequence of human integrin αVβ6 (P06756 31-992 limits assumed): as the sequence (P06756 31-992 limits assumed) above
Sequence of human integrin αVβ6 (P18564 22-707 limits assumed): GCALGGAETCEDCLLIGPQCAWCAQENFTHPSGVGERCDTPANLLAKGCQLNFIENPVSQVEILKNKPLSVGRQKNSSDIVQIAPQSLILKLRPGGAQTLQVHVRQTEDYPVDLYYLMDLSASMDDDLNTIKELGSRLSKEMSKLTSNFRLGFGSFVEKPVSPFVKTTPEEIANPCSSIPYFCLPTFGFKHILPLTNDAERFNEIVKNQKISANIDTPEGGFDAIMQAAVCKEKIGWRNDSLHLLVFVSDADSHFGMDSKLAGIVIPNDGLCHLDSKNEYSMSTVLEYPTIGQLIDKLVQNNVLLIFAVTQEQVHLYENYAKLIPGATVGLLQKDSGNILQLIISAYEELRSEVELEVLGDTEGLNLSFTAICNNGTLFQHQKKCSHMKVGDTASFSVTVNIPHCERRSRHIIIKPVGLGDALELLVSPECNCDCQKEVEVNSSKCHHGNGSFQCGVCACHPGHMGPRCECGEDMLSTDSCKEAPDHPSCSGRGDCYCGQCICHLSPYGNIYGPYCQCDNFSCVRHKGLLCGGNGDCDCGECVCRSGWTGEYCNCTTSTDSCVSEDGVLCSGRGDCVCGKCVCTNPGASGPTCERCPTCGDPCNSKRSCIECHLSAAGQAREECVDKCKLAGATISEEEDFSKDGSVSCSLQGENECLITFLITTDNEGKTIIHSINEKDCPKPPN
Protocol: as §1, §2, §3, §4, §5

Sequence of human integrin αVβ1 (P06756 31-992 limits assumed): as the sequence (P06756 31-992 limits assumed) above
Sequence of human integrin αVβ1 (P05556 21-728 limits assumed): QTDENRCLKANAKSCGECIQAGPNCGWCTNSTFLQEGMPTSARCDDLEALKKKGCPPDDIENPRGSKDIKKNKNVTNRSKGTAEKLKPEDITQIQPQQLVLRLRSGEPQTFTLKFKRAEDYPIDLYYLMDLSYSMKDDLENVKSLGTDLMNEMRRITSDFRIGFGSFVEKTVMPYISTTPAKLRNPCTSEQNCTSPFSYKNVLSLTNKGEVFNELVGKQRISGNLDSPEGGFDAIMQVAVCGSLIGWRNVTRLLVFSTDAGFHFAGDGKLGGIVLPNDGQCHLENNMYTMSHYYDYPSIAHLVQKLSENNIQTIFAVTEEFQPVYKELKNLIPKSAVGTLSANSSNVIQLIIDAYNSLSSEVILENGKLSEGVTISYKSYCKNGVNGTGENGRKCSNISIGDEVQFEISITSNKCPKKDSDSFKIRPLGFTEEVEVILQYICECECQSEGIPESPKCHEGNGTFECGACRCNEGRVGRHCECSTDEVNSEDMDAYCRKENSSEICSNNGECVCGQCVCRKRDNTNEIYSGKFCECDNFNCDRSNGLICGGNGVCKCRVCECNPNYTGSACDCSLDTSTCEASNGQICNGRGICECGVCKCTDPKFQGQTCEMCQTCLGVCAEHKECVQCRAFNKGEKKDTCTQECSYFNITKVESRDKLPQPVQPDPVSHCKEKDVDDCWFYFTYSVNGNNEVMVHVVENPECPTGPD

SMILES | IC50 (human integrin αVβ1) [nM] | IC50 (human integrin αVβ8) [nM] | IC50 (human integrin αVβ6) [nM]
O=C(O)[C@H](CCOCCCCc1ccc2c(n1)NCCC2)NC(=O)C1(c2cnccn2)CC1 [Compound 11, N-(1-(pyrazin-2-yl)cyclopropane-1-carbonyl)-O-(4-(5,6,7,8-tetrahydro-1,8-naphthyridin-2-yl)butyl)-L-homoserine] | < 50 | 50 to 150 | ≥ 500
Cc1ccncc1C1(C(=O)N[C@@H](CCOCCCCc2ccc3c(n2)NCCC3)C(=O)O)CC1 [Compound 16, N-(1-(4-methylpyridin-3-yl)cyclopropane-1-carbonyl)-O-(4-(5,6,7,8-tetrahydro-1,8-naphthyridin-2-yl)butyl)-L-homoserine] | < 50 | < 50 | ≥ 500
Cc1cnc(C2(C(=O)N[C@@H](CCOCCCCc3ccc4c(n3)NCCC4)C(=O)O)CC2)c(Cl)c1 [Compound 36, N-(1-(3-chloro-5-methylpyridin-2-yl)cyclopropane-1-carbonyl)-O-(4-(5,6,7,8-tetrahydro-1,8-naphthyridin-2-yl)butyl)-L-homoserine] | < 50 | < 50 | ≥ 500
Cc1ccccc1C1(C(=O)N[C@@H](CCOCCCCc2ccc3c(n2)NCCC3)C(=O)O)CC1 [Compound 17, O-(4-(5,6,7,8-tetrahydro-1,8-naphthyridin-2-yl)butyl)-N-(1-(o-tolyl)cyclopropane-1-carbonyl)-L-homoserine] | 50 to 150 | < 50 | ≥ 500
O=C(O)[C@H](CCOCCCCc1ccc2c(n1)NCCC2)NC(=O)C1(c2c(Cl)cncc2Cl)CC1 [Compound 24, N-(1-(3,5-dichloropyridin-4-yl)cyclopropane-1-carbonyl)-O-(4-(5,6,7,8-tetrahydro-1,8-naphthyridin-2-yl)butyl)-L-homoserine] | < 50 | < 50 | 50 to 150
O=C(O)[C@H](CCOCCCCc1ccc2c(n1)NCCC2)NC(=O)C1(c2[nH]ncc2Cl)CC1 [Compound 71, N-(1-(4-chloro-1H-pyrazol-5-yl)cyclopropane-1-carbonyl)-O-(4-(5,6,7,8-tetrahydro-1,8-naphthyridin-2-yl)butyl)-L-homoserine] | < 50 | < 50 | ≥ 500
O=C(O)[C@H](CCOCCCCc1ccc2c(n1)NCCC2)NC(=O)C1(c2ncccc2C2CC2)CC1 [Compound 58, N-(1-(3-cyclopropylpyridin-2-yl)cyclopropane-1-carbonyl)-O-(4-(5,6,7,8-tetrahydro-1,8-naphthyridin-2-yl)butyl)-L-homoserine] | < 50 | 150 to 250 | ≥ 500
O=C(O)[C@H](CCOCCCCc1ccc2c(n1)NCCC2)NC(=O)C1(c2cncnc2C(F)F)CC1 [Compound 59, N-(1-(4-(difluoromethyl)pyrimidin-5-yl)cyclopropane-1-carbonyl)-O-(4-(5,6,7,8-tetrahydro-1,8-naphthyridin-2-yl)butyl)-L-homoserine] | < 50 | < 50 | ≥ 500
O=C(O)[C@H](CCOCCCCc1ccc2c(n1)NCCC2)NC(=O)C1(c2ccccc2Cl)CC1 [Compound 6, N-(1-(2-chlorophenyl)cyclopropane-1-carbonyl)-O-(4-(5,6,7,8-tetrahydro-1,8-naphthyridin-2-yl)butyl)-L-homoserine] | < 50 | < 50 | ≥ 500
O=C(O)[C@H](CCOCCCCc1ccc2c(n1)NCCC2)NC(=O)C1(c2ncccn2)CC1 [Compound 12, N-(1-(pyrimidin-2-yl)cyclopropane-1-carbonyl)-O-(4-(5,6,7,8-tetrahydro-1,8-naphthyridin-2-yl)butyl)-L-homoserine] | 50 to 150 | ≥ 500 | ≥ 500
O=C(O)[C@H](CCOCCCCc1ccc2c(n1)NCCC2)NC(=O)C1(c2ncccc2OC(F)F)CC1 [Compound 38, N-(1-(3-(difluoromethoxy)pyridin-2-yl)cyclopropane-1-carbonyl)-O-(4-(5,6,7,8-tetrahydro-1,8-naphthyridin-2-yl)butyl)-L-homoserine] | < 50 | < 50 | ≥ 500
O=C(O)[C@H](CCOCCCCc1ccc2c(n1)NCCC2)NC(=O)C1(n2ccc(Cl)n2)CC1 [Compound 55, N-(1-(3-chloro-1H-pyrazol-1-yl)cyclopropane-1-carbonyl)-O-(4-(5,6,7,8-tetrahydro-1,8-naphthyridin-2-yl)butyl)-L-homoserine] | < 50 | 50 to 150 | ≥ 500
Cn1cc(C(F)(F)F)c(C2(C(=O)N[C@@H](CCOCCCCc3ccc4c(n3)NCCC4)C(=O)O)CC2)n1 [Compound 77, N-(1-(1-methyl-4-(trifluoromethyl)-1H-pyrazol-3-yl)cyclopropane-1-carbonyl)-O-(4-(5,6,7,8-tetrahydro-1,8-naphthyridin-2-yl)butyl)-L-homoserine] | < 50 | < 50 | ≥ 500
O=C(N[C@@H](CCOCCCCc1ccc2c(n1)NCCC2)C(=O)O)c1ccn(-c2ccccc2)n1 [Compound 97, N-(1-phenyl-1H-pyrazole-3-carbonyl)-O-(4-(5,6,7,8-tetrahydro-1,8-naphthyridin-2-yl)butyl)-L-homoserine] | 50 to 150 | 250 to 500 | 250 to 500
O=C(O)[C@H](CCOCCCCc1ccc2c(n1)NCCC2)NC(=O)C1(c2ncc(F)cc2Cl)CC1 [Compound 14, N-(1-(3-chloro-5-fluoropyridin-2-yl)cyclopropane-1-carbonyl)-O-(4-(5,6,7,8-tetrahydro-1,8-naphthyridin-2-yl)butyl)-L-homoserine] | < 50 | < 50 | ≥ 500

Results, then the compound that gave them:

IC50 (human integrin αVβ1) [nM] | IC50 (human integrin αVβ8) [nM] | IC50 (human integrin αVβ6) [nM] | SMILES
< 50 | < 50 | > 500 | [2H]C1([2H])C([2H])([2H])C1(C(=O)N[C@@H](CCOCCCCc1ccc2c(n1)NCCC2)C(=O)O)c1c(C)ncnc1Cl [Compound 104, N-(1-(4-chloro-6-methylpyrimidin-5-yl)cyclopropane-1-carbonyl-2,2,3,3-d4)-O-(4-(5,6,7,8-tetrahydro-1,8-naphthyridin-2-yl)butyl)-L-homoserine]
< 50 | < 50 | ≥ 500 | Cc1ncccc1C1(C(=O)N[C@@H](CCOCCCCc2ccc3c(n2)NCCC3)C(=O)O)CC1 [Compound 13, N-(1-(2-methylpyridin-3-yl)cyclopropane-1-carbonyl)-O-(4-(5,6,7,8-tetrahydro-1,8-naphthyridin-2-yl)butyl)-L-homoserine]
< 50 | < 50 | ≥ 500 | Cn1cc(C#N)c(C2(C(=O)N[C@@H](CCOCCCCc3ccc4c(n3)NCCC4)C(=O)O)CC2)n1 [Compound 75, N-(1-(4-cyano-1-methyl-1H-pyrazol-3-yl)cyclopropane-1-carbonyl)-O-(4-(5,6,7,8-tetrahydro-1,8-naphthyridin-2-yl)butyl)-L-homoserine]
< 50 | < 50 | > 500 | O=C(O)[C@H](CCOCCCCc1ccc2c(n1)NCCC2)NC(=O)C1(c2cccc(F)c2)CCOCC1 [Compound 88, N-(4-(3-fluorophenyl)tetrahydro-2H-pyran-4-carbonyl)-O-(4-(5,6,7,8-tetrahydro-1,8-naphthyridin-2-yl)butyl)-L-homoserine]
< 50 | < 50 | ≥ 500 | O=C(O)[C@H](CCOCCCCc1ccc2c(n1)NCCC2)NC(=O)C1(c2[nH]c(=O)ccc2Cl)CC1 [Compound 66, N-(1-(3-chloro-6-oxo-1,6-dihydropyridin-2-yl)cyclopropane-1-carbonyl)-O-(4-(5,6,7,8-tetrahydro-1,8-naphthyridin-2-yl)butyl)-L-homoserine]
< 50 | 50 to 150 | 250 to 500 | O=C(O)[C@H](CCOCCCCc1ccc2c(n1)NCCC2)NC(=O)C1(C(F)F)CCOC1 (stereo partly drawn) [Compound 83, N-(3-(difluoromethyl)tetrahydrofuran-3-carbonyl)-O-(4-(5,6,7,8-tetrahydro-1,8-naphthyridin-2-yl)butyl)-L-homoserine]
50 to 150 | < 50 | ≥ 500 | Cc1cccnc1C1(C(=O)N[C@@H](CCOCCCCc2ccc3c(n2)NCCC3)C(=O)O)CC1 [Compound 29, N-(1-(3-methylpyridin-2-yl)cyclopropane-1-carbonyl)-O-(4-(5,6,7,8-tetrahydro-1,8-naphthyridin-2-yl)butyl)-L-homoserine]
< 50 | < 50 | > 500 | Cc1ncnc(Cl)c1C1(C(=O)NC(CCOCCCCc2ccc3c(n2)NCCC3)C(=O)O)CC1 (stereo not drawn) [Compound 101, N-(1-(4-chloro-6-methylpyrimidin-5-yl)cyclopropane-1-carbonyl)-O-(4-(5,6,7,8-tetrahydro-1,8-naphthyridin-2-yl)butyl)homoserine]
